Source: publication PMC10710035 (Breast cancer research and treatment, 2023)
Read-outs that look alike come from different tables or passages of the source. One block for each compound: values may come before it.

What was measured:
[1] = Plasma pharmacokinetics, cycle 1 day 3; type: in vivo, human
[2] = system: early-stage TNBC; conditions: weekly paclitaxel alone, then AC; 95% PI, 9-43%; cited from earlier work
[3] = system: patients; conditions: cited from earlier work
[4] = system: metastatic TNBC; conditions: cited from earlier work
[5] = system: patients; conditions: olaparib with carboplatin; cited from earlier work
[6] = system: patients with advanced solid tumors
[7] = system: patients with advanced solid tumors; type: in vivo
[8] = system: BRCA mutated TNBC; conditions: addition of 120 mg BID to carboplatin plus paclitaxel; BROCADE 2; cited from earlier work
[9] = cisplatin without veliparib, BRCA-like phenotype
[10] = Expansion (n = 12), veliparib 150 mg bid continuous
[11] = Level 1 (n = 3), veliparib 50 mg bid
[12] = Level 2 (n = 3), veliparib 100 mg bid
[13] = Level 3 (n = 7), veliparib 150 mg bid
[14] = Level 4 (n = 5), veliparib 200 mg bid

Compound: N.N.O=C([O-])C1(C(=O)[O-])CCC1.[Pt+2] [Carboplatin, carboplatin]
Cmax and AUC0-∞, impact of veliparib dose ([1]; ultrafilterable carboplatin, 20 evaluable patients): not impacted

exposure (Cmax and AUC0-∞) across veliparib doses ([1]; human, in vivo): not altered
Compound: CC(=O)O[C@H]1C(=O)[C@@]2(C)[C@H]([C@H](OC(=O)c3ccccc3)[C@]3(O)C[C@H](OC(=O)[C@H](O)[C@@H](NC(=O)c4ccccc4)c4ccccc4)C(C)=C1C3(C)C)[C@]1(OC(C)=O)CO[C@@H]1C[C@@H]2O [Paclitaxel, paclitaxel]
complete pathological response (cPR) rate [2]: 26%

Compound: Cn1ncnc1[C@H]1c2n[nH]c(=O)c3cc(F)cc(c23)N[C@@H]1c1ccc(F)cc1 [Talazoparib, talazoparib]
single agent MTD ([3]; single agent): 1000 µg | patients with dose modification ([3]; talazoparib with carboplatin AUC5-6 and paclitaxel 80 mg/m^2 days 1, 8, 15 of 21-day cycles): 87-100%

Compound: N.N.[Cl][Pt][Cl] [cisplatin]
PFS at 1 year [4, 9]: 7% | median PFS [4, 9]: 4.3 months | rate of grade 3/4 neutropenia ([4]; in vivo): 19%

Compound: O=C(c1cc(Cc2n[nH]c(=O)c3ccccc23)ccc1F)N1CCN(C(=O)C2CC2)CC1 [olaparib]
tolerability with carboplatin [5]: not tolerable

Compound: C[C@]1(c2nc3c(C(N)=O)cccc3[nH]2)CCCN1 [veliparib]
DLT ([6]; in vivo): without DLT | patients who experienced a DLT ([6]; in vivo): none | MTD ([6]; with weekly carboplatin and paclitaxel, enrollment to DL4 terminated): not formally reached | PFS at 1 year ([4]; veliparib with cisplatin, BRCA-like phenotype): 20% | rate of grade 3/4 neutropenia ([4]; veliparib with cisplatin): 46% | thrombocytopenia grade 3/4 ([7]; 4 patients of 30, all dose levels and cycles): 13% | anemia grade 3/4 ([7]; 7 patients of 30, all dose levels and cycles): 23% | neutropenia grade 3/4 ([7]; 18 patients of 30, all dose levels and cycles): 60% | relationship between veliparib dose level and incidence or severity of adverse events ([7]; 50-200 mg bid): no clear relationship | ALT increased, any grade ([7]; All Patients (N = 30)): 4 (13%) | AST increased, any grade ([7]; All Patients (N = 30)): 3 (10%) | Anemia, any grade ([7]; All Patients (N = 30)): 20 (67%) | Anemia, grade ≥ 3 ([7]; All Patients (N = 30)): 7 (23%) | Anorexia, any grade ([7]; All Patients (N = 30)): 3 (10%) | Any Grade ≥ 3 AE ([7]; All Patients (N = 30)): 24 (80%) | Any grade AE ([7]; All Patients (N = 30)): 28 (93%) | Bruising, any grade ([7]; All Patients (N = 30)): 2 (7%) | Dehydration, grade ≥ 3 ([7]; All Patients (N = 30)): 1 (3%) | Diarrhea, any grade ([7]; All Patients (N = 30)): 5 (17%) | Dysgeusia, any grade ([7]; All Patients (N = 30)): 2 (7%) | Fatigue, any grade ([7]; All Patients (N = 30)): 18 (60%) | Fatigue, grade ≥ 3 ([7]; All Patients (N = 30)): 1 (3%) | Febrile neutropenia, grade ≥ 3 ([7]; All Patients (N = 30)): 1 (3%) | Headache, any grade ([7]; All Patients (N = 30)): 3 (10%) | Hot flashes, any grade ([7]; All Patients (N = 30)): 4 (13%) | Hyperglycemia, any grade ([7]; All Patients (N = 30)): 2 (7%) | Hypocalcemia, any grade ([7]; All Patients (N = 30)): 3 (10%) | Hyponatremia, any grade ([7]; All Patients (N = 30)): 2 (7%) | Hypophosphatemia, any grade ([7]; All Patients (N = 30)): 4 (13%) | Hypophosphatemia, grade ≥ 3 ([7]; All Patients (N = 30)): 1 (3%) | Lymphocyte count decreased, any grade ([7]; All Patients (N = 30)): 11 (37%) | Lymphocyte count decreased, grade ≥ 3 ([7]; All Patients (N = 30)): 7 (23%) | Myalgia, any grade ([7]; All Patients (N = 30)): 3 (10%) | Nausea, any grade ([7]; All Patients (N = 30)): 16 (53%) | Nausea, grade ≥ 3 ([7]; All Patients (N = 30)): 2 (7%) | Neutrophil count decreased, any grade ([7]; All Patients (N = 30)): 24 (80%) | Neutrophil count decreased, grade ≥ 3 ([7]; All Patients (N = 30)): 18 (60%) | Peripheral sensory neuropathy, any grade ([7]; All Patients (N = 30)): 3 (10%) | Platelet count decreased, any grade ([7]; All Patients (N = 30)): 22 (73%) | Platelet count decreased, grade ≥ 3 ([7]; All Patients (N = 30)): 4 (13%) | Rash maculo-papular, any grade ([7]; All Patients (N = 30)): 2 (7%) | Vomiting, any grade ([7]; All Patients (N = 30)): 4 (13%) | Vomiting, grade ≥ 3 ([7]; All Patients (N = 30)): 1 (3%) | White blood cell decreased, any grade ([7]; All Patients (N = 30)): 22 (73%) | White blood cell decreased, grade ≥ 3 ([7]; All Patients (N = 30)): 15 (50%) | ALT increased, any grade [7, 10]: 3 (25%) | AST increased, any grade [7, 10]: 2 (17%) | Anemia, any grade [7, 10]: 9 (75%) | Anemia, grade ≥ 3 [7, 10]: 3 (25%) | Anorexia, any grade [7, 10]: 2 (17%) | Any Grade ≥ 3 AE [7, 10]: 11 (92%) | Any grade AE [7, 10]: 12 (100%) | Bruising, any grade [7, 10]: 1 (8%) | Dehydration, grade ≥ 3 [7, 10]: 1 (8%) | Diarrhea, any grade [7, 10]: 3 (25%) | Fatigue, any grade [7, 10]: 8 (67%) | Febrile neutropenia, grade ≥ 3 [7, 10]: 1 (8%) | Headache, any grade [7, 10]: 2 (17%) | Hot flashes, any grade [7, 10]: 2 (17%) | Hypocalcemia, any grade [7, 10]: 1 (8%) | Hypophosphatemia, any grade [7, 10]: 3 (25%) | Hypophosphatemia, grade ≥ 3 [7, 10]: 1 (8%) | Lymphocyte count decreased, any grade [7, 10]: 7 (58%) | Lymphocyte count decreased, grade ≥ 3 [7, 10]: 3 (25%) | Myalgia, any grade [7, 10]: 2 (17%) | Nausea, any grade [7, 10]: 10 (83%) | Nausea, grade ≥ 3 [7, 10]: 1 (8%) | Neutrophil count decreased, any grade [7, 10]: 10 (83%) | Neutrophil count decreased, grade ≥ 3 [7, 10]: 6 (50%) | Peripheral sensory neuropathy, any grade [7, 10]: 2 (17%) | Platelet count decreased, any grade [7, 10]: 10 (83%) | Platelet count decreased, grade ≥ 3 [7, 10]: 2 (17%) | Vomiting, any grade [7, 10]: 3 (25%) | White blood cell decreased, any grade [7, 10]: 10 (83%) | White blood cell decreased, grade ≥ 3 [7, 10]: 7 (58%) | Any Grade ≥ 3 AE [7, 11]: 2 (67%) | Any grade AE [7, 11]: 2 (67%) | Neutrophil count decreased, any grade [7, 11]: 2 (67%) | Neutrophil count decreased, grade ≥ 3 [7, 11]: 2 (67%) | Platelet count decreased, any grade [7, 11]: 1 (33%) | Anemia, any grade [7, 12]: 3 (100%) | Any Grade ≥ 3 AE [7, 12]: 2 (67%) | Any grade AE [7, 12]: 3 (100%) | Bruising, any grade [7, 12]: 1 (33%) | Diarrhea, any grade [7, 12]: 2 (67%) | Dysgeusia, any grade [7, 12]: 1 (33%) | Fatigue, any grade [7, 12]: 3 (100%) | Hot flashes, any grade [7, 12]: 1 (33%) | Hyperglycemia, any grade [7, 12]: 1 (33%) | Hypocalcemia, any grade [7, 12]: 1 (33%) | Hyponatremia, any grade [7, 12]: 1 (33%) | Myalgia, any grade [7, 12]: 1 (33%) | Nausea, any grade [7, 12]: 3 (100%) | Neutrophil count decreased, any grade [7, 12]: 3 (100%) | Neutrophil count decreased, grade ≥ 3 [7, 12]: 2 (67%) | Platelet count decreased, any grade [7, 12]: 3 (100%) | Rash maculo-papular, any grade [7, 12]: 1 (33%) | White blood cell decreased, any grade [7, 12]: 3 (100%) | White blood cell decreased, grade ≥ 3 [7, 12]: 1 (33%) | ALT increased, any grade [7, 13]: 1 (14%) | AST increased, any grade [7, 13]: 1 (14%) | Anemia, any grade [7, 13]: 4 (57%) | Anemia, grade ≥ 3 [7, 13]: 2 (29%) | Anorexia, any grade [7, 13]: 1 (14%) | Any Grade ≥ 3 AE [7, 13]: 4 (57%) | Any grade AE [7, 13]: 6 (86%) | Dysgeusia, any grade [7, 13]: 1 (14%) | Fatigue, any grade [7, 13]: 3 (43%) | Headache, any grade [7, 13]: 1 (14%) | Hot flashes, any grade [7, 13]: 1 (14%) | Hyperglycemia, any grade [7, 13]: 1 (14%) | Hypocalcemia, any grade [7, 13]: 1 (14%) | Hyponatremia, any grade [7, 13]: 1 (14%) | Hypophosphatemia, any grade [7, 13]: 1 (14%) | Lymphocyte count decreased, any grade [7, 13]: 2 (29%) | Lymphocyte count decreased, grade ≥ 3 [7, 13]: 2 (29%) | Nausea, any grade [7, 13]: 2 (29%) | Neutrophil count decreased, any grade [7, 13]: 4 (57%) | Neutrophil count decreased, grade ≥ 3 [7, 13]: 3 (43%) | Peripheral sensory neuropathy, any grade [7, 13]: 1 (14%) | Platelet count decreased, any grade [7, 13]: 4 (57%) | Platelet count decreased, grade ≥ 3 [7, 13]: 2 (29%) | Rash maculo-papular, any grade [7, 13]: 1 (14%) | White blood cell decreased, any grade [7, 13]: 4 (57%) | White blood cell decreased, grade ≥ 3 [7, 13]: 2 (29%) | Anemia, any grade [7, 14]: 4 (80%) | Anemia, grade ≥ 3 [7, 14]: 2 (40%) | Any Grade ≥ 3 AE [7, 14]: 5 (100%) | Any grade AE [7, 14]: 5 (100%) | Fatigue, any grade [7, 14]: 4 (80%) | Fatigue, grade ≥ 3 [7, 14]: 1 (20%) | Lymphocyte count decreased, any grade [7, 14]: 2 (40%) | Lymphocyte count decreased, grade ≥ 3 [7, 14]: 2 (40%) | Nausea, any grade [7, 14]: 1 (20%) | Nausea, grade ≥ 3 [7, 14]: 1 (20%) | Neutrophil count decreased, any grade [7, 14]: 5 (100%) | Neutrophil count decreased, grade ≥ 3 [7, 14]: 5 (100%) | Platelet count decreased, any grade [7, 14]: 4 (80%) | Vomiting, any grade [7, 14]: 1 (20%) | Vomiting, grade ≥ 3 [7, 14]: 1 (20%) | White blood cell decreased, any grade [7, 14]: 5 (100%) | White blood cell decreased, grade ≥ 3 [7, 14]: 5 (100%) | came off study due to toxicity ([7]; of the total 30 patients enrolled): 10 patients | clearance ([1]; human, in vivo): 387 mL/min | half-life ([1]; human, in vivo): 4.8 h | AUC0-12 and Cmax versus dose ([1]; in vivo): increase linearly with dose | ORR [8]: improved ORR | PFS benefit [8]: did not translate into a PFS benefit
